Experimental data taken from patent publication US9029553B2, “2-anilino nicotinyl linked 2-amino benzothiazole conjugates and process for the preparation thereof” (Council of Scientific & Industrial Research, priority 2011, dated 2015).
“Also recorded” adds a separate entry of the source.

Key:
topoisomerase II = assay: DNA topoisomerase-II inhibition assay; type: biochemical; conditions: 1 μM; etoposide 100 μM
Text: DNA topoisomerases are nuclear enzymes capable of resolving the topology of DNA to allow its replication. So, proper relaxing is very important for successful replication cycle and thus for the cell survival. However, topoisomerases also serve as targets in the anticancer chemotherapy in which cell death serves an important purpose. Moreover, the topoisomerase targeting drugs can either be classified either topo posions, which act by stabilizing enzyme DNA cleavable complexes leading to DNA break or topo catalytic inhibitors, which act by stabilizing enzyme where both DNA strands remain intact and no DNA breaks occur. Importantly, all the topoisomerase inhibitors finally induce apoptosis. In the present study, all the five compounds 4-8 were first subjected to topoisomerase II inhibition assay.

[1] = system: Ehrlich Ascites Carcinoma (EAC); assay: In vivo anticancer activity, Ehrlich ascites carcinoma; design: species or system Swiss mice; conditions: for No. of deaths / toxicity to animals: EAC mice
Experimental: Model: Ehrlich Ascites Carcinoma (EAC)
Ehrlich ascites carcinoma (EAC) cells were collected from the peritoneal cavity of the swiss mice harbouring 8-10 days old ascitic tumor. 1×10^7 EAC cells were injected intraperitoneally in Swiss mice selected for the experiment on day 0. The next day, animals were randomized and divided into different groups. The treatment groups contained 7 animals each and control group contained 10 animals. Treatment groups were treated with different doses of test substances intraperitoneally from day 1-9. One of the treatment group received 5-fluorouracil (20 mg/kg, i.p) and it served as positive control. The tumor bearing control group was similarly administered normal saline (0.2 ml, i.p.). On day 12, animals were sacrificed and ascitic fluid was collected from peritoneal cavity of each mouse for the evaluation of tumor growth. Percent tumor growth inhibition was calculated based on the total number of tumor cells present in the peritoneal cavity as on day 12 of the experiment using the following formula.

HL-60 cells = assay: Flow cytometric analysis of reactive oxygen species (DCFH-DA); type: cell-based, human; conditions: 1 μM, 24 hr, HL-60
Experimental: It was clear that these compounds were cytotoxic and induce apoptosis in HL-60 cells, now we have to found out the early events which were responsible for the induction of apoptosis like reactive oxygen species (ROS) or nitric oxide (NO) generation. Intracellular peroxide (ROS) in the cells was measured by DCFH-DA by using flow cytometry. Cells were incubated with tested compounds at 1 μM for 24 h in HL-60 cells and analyzed by flow cytometry after double staining with DCFH-DA (FIG. 7). Cells were analyzed for fluorescence intensity in FL1 vs. cell count. There was hardly any DCF fluorescence (ROS positive cells) in the untreated HL-60 cells, and this status remained unchanged when cells were incubated for 24 hr with compounds 7 and 8. […] Compounds 4 and 6 also induce the generation of peroxide in HL-60 cells (31 and 16% increase, respectively).

[2] = system: caspase-3, caspase-8, caspase-9 activity in HL-60 Cells; assay: Caspases induction; type: cell-based, human; conditions: 1 μM, 24 h
Text: So activation of caspases by compound 8 indicate that it induce apoptosis through both the intrinsic as well as extrinsic apoptotic pathway in HL-60 cells.

O=C(Nc1nc2ccc([N+](=O)[O-])cc2s1)c1cccnc1Nc1cc(F)c(F)c(F)c1 [Compound 8, N3-(6-nitro-1,3-benzothiazol-2-yl)-2-[(3,4,5-trifluorophenyl)amino]-3-pyridine carboxamide]
topoisomerase-II inhibition (DNA relaxation) (topoisomerase II): more potent effect relative to etoposide; also recorded: maximum inhibition
Growth Inhibition (%) ([1]; 0.1 mg/kg i.p. day 1-9, read day 12): 10.98%
No. of deaths / toxicity to animals ([1]; 0.1 mg/kg i.p.): 0/7
Growth Inhibition (%) ([1]; 0.3 mg/kg i.p. day 1-9, read day 12): 53.15%
No. of deaths / toxicity to animals ([1]; 0.3 mg/kg i.p.): 0/7
Growth Inhibition (%) ([1]; 0.4 mg/kg i.p. day 1-9, read day 12): Intolerable
No. of deaths / toxicity to animals ([1]; 0.4 mg/kg i.p.): deaths of all the seven animals
No. of deaths / toxicity to animals ([1]; 0.4 mg/kg i.p., listed as Comp 8): 7/7
Growth Inhibition (%) ([1]; 0.5 mg/kg i.p. day 1-9, read day 12): Intolerable
No. of deaths / toxicity to animals ([1]; 0.5 mg/kg i.p.): 7/7
Growth Inhibition (%) ([1]; 2 mg/Kg i.p. day 1-9, read day 12): Intolerable
No. of deaths / toxicity to animals ([1]; 2 mg/Kg i.p.): 7/7
Growth Inhibition (%) ([1]; 5 mg/Kg i.p. day 1-9, read day 12): Intolerable
No. of deaths / toxicity to animals ([1]; 5 mg/Kg i.p.): 7/7
Growth Inhibition (%) ([1]; 20 mg/Kg i.p. day 1-9, read day 12): Intolerable
No. of deaths / toxicity to animals ([1]; 20 mg/Kg i.p.): 7/7
DCF fluorescence (ROS positive cells), in words (HL-60 cells): unchanged
activation of caspases-3,-8,-9 activities [2]: 2-3 folds
